Target: T1, hTERT (catalytic subunit of human telomerase) (Homo sapiens, UniProt O14746)
T1 construct: gene TERT; with telomerase ribonucleoprotein (TERC RNA and accessory proteins)
Experiment: test-tube TRAP assay
Format: biochemical

T1 sequence (O14746 whole entry): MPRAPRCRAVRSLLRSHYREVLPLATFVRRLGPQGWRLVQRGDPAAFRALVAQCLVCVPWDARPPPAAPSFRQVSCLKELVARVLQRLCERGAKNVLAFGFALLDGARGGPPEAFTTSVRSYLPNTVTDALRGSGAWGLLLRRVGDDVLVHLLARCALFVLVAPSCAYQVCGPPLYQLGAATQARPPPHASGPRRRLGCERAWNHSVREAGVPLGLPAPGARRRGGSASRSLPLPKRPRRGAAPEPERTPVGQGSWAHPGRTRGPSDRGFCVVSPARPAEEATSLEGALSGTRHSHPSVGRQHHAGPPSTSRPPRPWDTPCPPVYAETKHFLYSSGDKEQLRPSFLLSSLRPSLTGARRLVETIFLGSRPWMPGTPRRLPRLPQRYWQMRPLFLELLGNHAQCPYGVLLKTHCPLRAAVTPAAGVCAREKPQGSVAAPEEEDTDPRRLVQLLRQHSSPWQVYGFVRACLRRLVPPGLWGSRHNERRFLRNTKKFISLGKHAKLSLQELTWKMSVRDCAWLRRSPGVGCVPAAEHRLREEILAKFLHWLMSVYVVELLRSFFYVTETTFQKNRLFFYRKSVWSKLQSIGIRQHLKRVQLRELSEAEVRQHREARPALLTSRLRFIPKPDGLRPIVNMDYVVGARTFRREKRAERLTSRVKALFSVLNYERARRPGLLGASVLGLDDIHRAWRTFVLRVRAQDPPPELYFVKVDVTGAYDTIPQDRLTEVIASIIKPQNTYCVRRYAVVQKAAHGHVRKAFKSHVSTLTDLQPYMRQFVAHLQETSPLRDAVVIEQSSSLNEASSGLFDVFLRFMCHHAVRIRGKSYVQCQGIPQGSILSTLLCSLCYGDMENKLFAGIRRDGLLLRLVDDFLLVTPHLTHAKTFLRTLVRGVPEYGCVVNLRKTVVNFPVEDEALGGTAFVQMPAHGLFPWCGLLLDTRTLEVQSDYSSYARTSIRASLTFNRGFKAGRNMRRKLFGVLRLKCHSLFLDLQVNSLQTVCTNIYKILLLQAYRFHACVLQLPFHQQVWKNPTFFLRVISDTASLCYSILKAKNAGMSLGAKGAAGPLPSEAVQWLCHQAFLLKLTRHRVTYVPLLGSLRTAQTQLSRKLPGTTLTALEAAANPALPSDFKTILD

In the case of `C/C(=C\C(=O)Nc1ccccc1C(=O)O)c1ccc2ccccc2c1` [BIBR1532], the IC50 is reported as 64.1 ± 2.53 µM.

Source: PMC9701690, “Teloxantron inhibits the processivity of telomerase with preferential DNA damage on telomeres” (Cell Death & Disease, 2022)
